The values that follow come from PubChem BioAssay AID248 (DTP/NCI, 2004).

“And” between values parts separate entries of the source, which are not always exact repeats. Equal values may be shown once. Inconclusive results and toxic doses are left out.

The assay deals with L1210 leukemia ip in BDF1 mice, survival T/C. Description: NCI In Vivo Anticancer Drug Screen. Data for tumor model L1210 Leukemia (intraperitoneal) in B6D2F1 (BDF1) mice. Conditions: endpoint: mean survival time, higher = longer survival. The method, boiled down: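 Mice bearing the transplanted tumor received compound or vehicle. Survival of the treated group was divided by that of the vehicle-treated control group to give the ratio.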

The mark [1] stands for this setting: dose: 25.0 mg/kg/injection, schedule: Q04DX003 (ip), vehicle: saline.
[2] abbreviates: dose: 100.0 mg/kg/injection, schedule: Q01DX009 (ip), vehicle: saline.
[3] abbreviates: dose: 100.0 mg/kg/injection, schedule: Q04DX003 (ip), vehicle: Klucel (hydroxypropylcellulose) (HPC).
The mark [4] stands for this setting: dose: 200.0 mg/kg/injection, schedule: Q04DX003 (ip), vehicle: Klucel (hydroxypropylcellulose) (HPC).
Where [5] appears, read: dose: 400.0 mg/kg/injection, schedule: Q04DX003 (ip), vehicle: Klucel (hydroxypropylcellulose) (HPC).
Setting [6] is: dose: 100.0 mg/kg/injection, schedule: Q04DX002 (ip), vehicle: Klucel (hydroxypropylcellulose) (HPC).
Where [7] appears, read: dose: 200.0 mg/kg/injection, schedule: Q04DX002 (ip), vehicle: Klucel (hydroxypropylcellulose) (HPC).
Setting [8] is: dose: 100.0 mg/kg/injection, schedule: Q01DX009 (ip), vehicle: Klucel (hydroxypropylcellulose) (HPC).
Where [9] appears, read: dose: 200.0 mg/kg/injection, schedule: Q01DX009 (ip), vehicle: Klucel (hydroxypropylcellulose) (HPC).
Where [10] appears, read: dose: 400.0 mg/kg/injection, schedule: Q01DX009 (ip), vehicle: Klucel (hydroxypropylcellulose) (HPC).
[11] abbreviates: dose: 100.0 mg/kg/injection, schedule: Q04DX003 (ip), vehicle: saline.

For the compound `Cc1ccc(S(=O)(=O)OC2CCN(C)CC2)cc1`, the T/C reads like this: (dose: 6.0 mg/kg/injection, schedule: Q01DX009 (ip), vehicle: saline) 91 % of control; (dose: 12.0 mg/kg/injection, schedule: Q01DX009 (ip), vehicle: saline) 93 % of control; (dose: 12.0 mg/kg/injection, schedule: Q04DX003 (ip), vehicle: saline) 102 % of control; (dose: 25.0 mg/kg/injection, schedule: Q01DX005 (ip), vehicle: saline) 97 % of control; (dose: 25.0 mg/kg/injection, schedule: Q01DX009 (ip), vehicle: saline) 93 % of control and 94 % of control; under setting [1], 96 % of control. Also, the T/C was 97 % of control (dose: 50.0 mg/kg/injection, schedule: Q01DX005 (ip), vehicle: saline); 96 % of control (dose: 50.0 mg/kg/injection, schedule: Q01DX009 (ip), vehicle: saline); 97 % of control and 99 % of control (dose: 100.0 mg/kg/injection, schedule: Q01DX005 (ip), vehicle: saline); 112 % of control under setting [2].

With `O=C1C=C(O)c2ccc(=O)[nH]c2C1=O`, the T/C (dose: 100.0 mg/kg/injection, schedule: Q01DX001 (ip), vehicle: saline) was 95 % of control and the T/C (dose: 200.0 mg/kg/injection, schedule: Q01DX001 (ip), vehicle: saline) was 98 % of control.

For `CC(=O)NCC(=O)O`, the T/C (dose: 100.0 mg/kg/injection, schedule: Q01DX001 (ip), vehicle: Klucel (hydroxypropylcellulose) (HPC)) is 113 % of control; the T/C (dose: 200.0 mg/kg/injection, schedule: Q01DX001 (ip), vehicle: Klucel (hydroxypropylcellulose) (HPC)) is 95 % of control; the T/C (dose: 300.0 mg/kg/injection, schedule: Q01DX001 (ip), vehicle: Klucel (hydroxypropylcellulose) (HPC)) was 94 % of control.

Turning to `C=C(C)C1CCC2(C(=O)O)CCC3(C)C(CCC4C5(C)CCC(O)C(C)(C)C5CCC43C)C12` (stereo not drawn), the T/C under setting [3] was 104 % of control, the T/C under setting [4] was 97 % of control and the T/C under setting [5] was 96 % of control.

Consider `C=CC(=O)NC(=O)/C=C/c1cccnc1`, for which the T/C reads like this: under setting [6], 117 % of control; under setting [7], 106 % of control; (dose: 400.0 mg/kg/injection, schedule: Q04DX002 (ip), vehicle: Klucel (hydroxypropylcellulose) (HPC)) 120 % of control.

Turning to `CCOC(=O)/C=C\CC(O)CC` (stereo not drawn), the T/C under setting [8] was 105 % of control; the T/C under setting [3] is 98 % of control; the T/C under setting [9] was 105 % of control; the T/C under setting [4] is 104 % of control; the T/C under setting [10] was 118 % of control; the T/C under setting [5] was 114 % of control.

Consider `Cc1cc(NCC2CCNCC2)nc(/N=C(\N)Nc2ccc(Cl)c(Cl)c2)n1`, for which the T/C by setting is: (dose: 12.5 mg/kg/injection, schedule: Q04DX003 (ip), vehicle: saline) 102 % of control; under setting [1], 113 % of control; (dose: 50.0 mg/kg/injection, schedule: Q04DX003 (ip), vehicle: saline) 102 % of control; under setting [11], 106 % of control.

For `CCC(=O)c1cc2c(c3c1CCCC3)CCCC2`, the T/C (dose: 200.0 mg/kg/injection, schedule: Q01DX009 (ip), vehicle: other) is 90 % of control.

As for `O=c1c2ccccc2[nH]c2cc(-n3nnc4ccccc4c3=O)ccc12`, the T/C was 88 % of control (dose: 75.0 mg/kg/injection, schedule: Q01DX001 (ip), vehicle: saline); 88 % of control (dose: 150.0 mg/kg/injection, schedule: Q01DX001 (ip), vehicle: saline); 98 % of control (dose: 300.0 mg/kg/injection, schedule: Q01DX001 (ip), vehicle: saline).

As for `CCOC(=O)N(C)c1ccccc1`, the T/C runs as follows: under setting [8], 101 % of control; under setting [3], 97 % of control; under setting [9], 105 % of control; under setting [4], 97 % of control; under setting [10], 101 % of control; under setting [5], 97 % of control.

On to `OC1C2C=CC1C1C=CC1=CC2` (stereo not drawn), for which the T/C was 103 % of control (dose: 50.0 mg/kg/injection, schedule: Q01DX001 (ip), vehicle: saline with Tween-80); 108 % of control (dose: 100.0 mg/kg/injection, schedule: Q01DX001 (ip), vehicle: saline with Tween-80); 98 % of control (dose: 200.0 mg/kg/injection, schedule: Q01DX001 (ip), vehicle: saline with Tween-80).

Regarding `OC(Cc1ccnc2ccccc12)C(Cl)(Cl)Cl` (stereo not drawn), the T/C under setting [2] was 95 % of control; the T/C (dose: 200.0 mg/kg/injection, schedule: Q01DX009 (ip), vehicle: saline) is 101 % of control; the T/C (dose: 400.0 mg/kg/injection, schedule: Q01DX009 (ip), vehicle: saline) was 95 % of control.

Take `CC1(C)CNC(C(=O)O)C1` (stereo not drawn): the T/C runs as follows: (dose: 100.0 mg/kg/injection, schedule: Q01DX009 (ip), vehicle: saline with Tween-80) 100 % of control; under setting [11], 96 % of control; (dose: 200.0 mg/kg/injection, schedule: Q01DX009 (ip), vehicle: saline with Tween-80) 96 % of control; (dose: 200.0 mg/kg/injection, schedule: Q04DX003 (ip), vehicle: saline) 95 % of control; (dose: 400.0 mg/kg/injection, schedule: Q04DX003 (ip), vehicle: saline) 98 % of control.

As for `O=C(Nc1ccc(C2=NCCCN2)cc1)Nc1ccc(NC(=O)Nc2ccc(C3=NCCCN3)cc2)c(Cl)c1`, the T/C was 163 % of control (dose: 62.0 mg/kg/injection, schedule: Q01DX Z (ip), vehicle: carboxymethylcellulose (CMC)); 110 % of control (dose: 62.0 mg/kg/injection, schedule: Q01DX Z (oral), vehicle: carboxymethylcellulose (CMC)); 110 % of control (dose: 125.0 mg/kg/injection, schedule: Q01DX Z (oral), vehicle: carboxymethylcellulose (CMC)); 116 % of control (dose: 250.0 mg/kg/injection, schedule: Q01DX Z (oral), vehicle: carboxymethylcellulose (CMC)); 111 % of control (dose: 500.0 mg/kg/injection, schedule: Q01DX Z (oral), vehicle: carboxymethylcellulose (CMC)).

Take `Cc1c([N+](=O)[O-])oc2ccc(Cl)cc12`: the T/C (dose: 50.0 mg/kg/injection, schedule: Q04DX002 (ip), vehicle: Klucel (hydroxypropylcellulose) (HPC)) was 93 % of control; the T/C under setting [8] is 100 % of control; the T/C under setting [6] is 87 % of control; the T/C under setting [9] was 91 % of control; the T/C under setting [7] was 93 % of control; the T/C under setting [10] is 95 % of control.

As to `NC(=O)NN=C(CS)CS`, the T/C reads like this: (dose: 0.5 mg/kg/injection, schedule: Q01DX015 (ip), vehicle: carboxymethylcellulose (CMC)) 93 % of control; (dose: 1.0 mg/kg/injection, schedule: Q01DX015 (ip), vehicle: carboxymethylcellulose (CMC)) 98 % of control; (dose: 2.0 mg/kg/injection, schedule: Q01DX015 (ip), vehicle: carboxymethylcellulose (CMC)) 96 % of control; (dose: 4.0 mg/kg/injection, schedule: Q01DX015 (ip), vehicle: carboxymethylcellulose (CMC)) 98 % of control and 104 % of control; (dose: 5.0 mg/kg/injection, schedule: Q01DX001 (ip), vehicle: other) 97 % of control; (dose: 8.0 mg/kg/injection, schedule: Q01DX015 (ip), vehicle: carboxymethylcellulose (CMC)) 98 % of control. Also, the T/C (dose: 10.0 mg/kg/injection, schedule: Q01DX001 (ip), vehicle: other) was 97 % of control; the T/C (dose: 16.0 mg/kg/injection, schedule: Q01DX015 (ip), vehicle: carboxymethylcellulose (CMC)) is 98 % of control; the T/C (dose: 20.0 mg/kg/injection, schedule: Q01DX001 (ip), vehicle: other) was 94 % of control; the T/C (dose: 25.0 mg/kg/injection, schedule: Q04DX003 (ip), vehicle: Klucel (hydroxypropylcellulose) (HPC)) is 104 % of control; the T/C (dose: 32.0 mg/kg/injection, schedule: Q01DX015 (ip), vehicle: carboxymethylcellulose (CMC)) was 98 % of control; the T/C (dose: 40.0 mg/kg/injection, schedule: Q01DX001 (ip), vehicle: other) is 97 % of control. In addition, the T/C is, setting by setting: (dose: 50.0 mg/kg/injection, schedule: Q04DX003 (ip), vehicle: Klucel (hydroxypropylcellulose) (HPC)) 101 % of control; (dose: 80.0 mg/kg/injection, schedule: Q01DX001 (ip), vehicle: other) 95 % of control; under setting [3], 101 % of control.
